The results in this text go back to BindingDB's records for doi:10.1021/acs.jmedchem.3c01236 (University of Toronto Mississauga, 2023).

This assay deals with Histone deacetylase 1 (Homo sapiens, UniProt Q13547). As to the kind of experiment: Inhibition of HDAC1 (unknown origin) using 6-carboxyfluorescein peptide as substrate preincubated with compound followed by substrate addition by electrophoretic mobility shift assay.
Chain of Histone deacetylase 1 (Q13547 whole entry): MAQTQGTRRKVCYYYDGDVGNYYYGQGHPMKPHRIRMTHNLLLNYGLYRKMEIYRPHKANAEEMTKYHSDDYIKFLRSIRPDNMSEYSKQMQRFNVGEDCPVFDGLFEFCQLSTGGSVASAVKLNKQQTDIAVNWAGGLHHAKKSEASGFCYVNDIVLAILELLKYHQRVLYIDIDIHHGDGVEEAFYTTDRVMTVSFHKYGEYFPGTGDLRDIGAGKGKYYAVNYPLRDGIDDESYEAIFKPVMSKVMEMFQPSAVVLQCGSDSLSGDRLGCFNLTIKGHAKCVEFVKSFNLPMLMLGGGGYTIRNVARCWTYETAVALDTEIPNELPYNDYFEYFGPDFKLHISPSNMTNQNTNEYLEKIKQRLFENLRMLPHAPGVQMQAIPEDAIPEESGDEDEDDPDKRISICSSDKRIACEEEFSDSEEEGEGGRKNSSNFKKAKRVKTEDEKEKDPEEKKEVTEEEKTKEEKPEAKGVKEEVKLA

With `C=CC(=O)N1CCC(OC(=O)NCc2ccc(C(=O)Nc3ccccc3N)cc2)CC1`, the IC50 was 685 nM.
